Source: patent publication US20110263507A1 (priority 2007, published 2011)
Where two headings read alike, the source gives them in different places. Where a SMILES comes first, the peptide text is derived from it. [ ]: non-standard residue; d: D form. Ala(indol-4-yl) = N[C@@H](Cc1cccc2[nH]ccc12)C(=O)O; NMeR = CN[C@@H](CCCNC(=N)N)C(=O)O; Tle = CC(C)(C)[C@H](N)C(=O)O; dOrn = NCCC[C@@H](N)C(=O)O; Orn = NCCC[C@H](N)C(=O)O; Dab = NCC[C@H](N)C(=O)O

Tests used:
hNTS1 = biological target: T1, hNTS1 (Homo sapiens, UniProt P30989); assay: Radioligand competition binding with [3H]NT, membranes of CHO-K1 cells expressing hNTS1; details: for hNTS1 Selectivity: Table 2, hNTS1 over hNTS2
T1 construct: expressed in transfected cells; host or cells: CHO-K1
Experimental: CHO-K1 cells that had been stably transfected separately with the hNTS1 or hNTS2 genes were cultured in 150 mm (500 cm^2) Petri plates with 35 ml of Dulbecco's modified Eagle's medium containing 100 μM minimal essential medium nonessential amino acids (Life Technologies, Inc.) supplemented with 5% (v/v) FetalClone II bovine serum product (Hyclone Labs, Logan, Utah). […] The cellular pellet (in Tris-HCl buffer) was stored at […] until the radioligand binding was performed.
For use in binding assays, crude membrane preparations were prepared by centrifugation of the cellular pellet at 35,600×g for 10 min. The supernatant was decanted and discarded, and the cellular pellet was resuspended in 1 ml of Tris-HCl buffer followed by homogenization with a Brinkmann Polytron at setting 5.5 for 15 s. Centrifugation was repeated as above, the supernatant was decanted and discarded, and the cellular pellet was resuspended in 1 ml of Tris-HCl buffer followed by homogenization. Centrifugation was repeated a third time, the supernatant was discarded, and the final cellular pellet was suspended in 0.5-2.5 ml of Tris-HCl buffer. Protein concentration of the membrane preparation was estimated by the method of Lowry et al. using bovine serum albumin as a standard.
Incubation was at 20° C. for 40 min. The assay was routinely terminated by addition of ice-cold 0.9% NaCl (5×1.5 ml), followed by rapid filtration through a GF/B filter strip that had been pretreated with 0.2% or 2% polyethyleneimine. Details of binding assays have been described previously. […] Data were analyzed using the LIGAND program.

hNTS2 = biological target: T2, hNTS2 (Homo sapiens, UniProt O95665); assay: Radioligand competition binding with [3H]NT, membranes of CHO-K1 cells expressing hNTS2
T2 construct: expressed in transfected cells; host or cells: CHO-K1
Experimental: CHO-K1 cells that had been stably transfected separately with the hNTS1 or hNTS2 genes were cultured in 150 mm (500 cm^2) Petri plates with 35 ml of Dulbecco's modified Eagle's medium containing 100 μM minimal essential medium nonessential amino acids (Life Technologies, Inc.) supplemented with 5% (v/v) FetalClone II bovine serum product (Hyclone Labs, Logan, Utah). CHO cells (subculture 7-15) were harvested at confluence by aspiration of the medium, followed by a wash with ice-cold 50 mM Tris-HCl buffer, pH=7.4, which was discarded, resuspension in 5-15 ml of Tris-HCl, scraping the cells with a plastic spatula into a centrifuge tube, and collection of cells by centrifugation at 300×g for 5 min at 4° C., in a GPR centrifuge (Beckman Instruments, Fullerton, Calif.). The cellular pellet (in Tris-HCl buffer) was stored at −180° C. until the radioligand binding was performed.
Incubation was at 20° C. for 40 min. The assay was routinely terminated by addition of ice-cold 0.9% NaCl (5×1.5 ml), followed by rapid filtration through a GF/B filter strip that had been pretreated with 0.2% or 2% polyethyleneimine. […] Data were analyzed using the LIGAND program.
Curves were generated using the LIGAND program. […] Data are the means of duplicate determinations and are representative results from one of at least three independent experiments.

[1] = Degradation of peptides in plasma in vitro (stability to plasma peptidases); format: in vitro ADME; details: peptide incubated with human (FIG. 4) or rat plasma; for half-life: read-out: half-lives in plasma
Experimental: All peptides that were stable (half-lives >100 h), such as NT66, NT67, NT69, NT72, and NT73, have either a blocked amino group (N-Methyl-Arg) or a D-amino in the 8 or 9 position (Table 4).

[2] = Body temperature lowering in mice; format: in vivo; details: intraperitoneal, 10 times the dosage of that for NT69, FIG. 5
From the text: At time “0” baseline readings were made. […] The thermistor probe was inserted 2 cm into the rectum for the measurement of body temperature.

[3] = Direct injection into the brains of rats; format: in vivo; details: direct injection into brain, unpublished observations
From the text: (See Cusack, B. et al. BRAIN RES 856: 48-54 (2000) and Tyler-McMahon, B. M. et al. EUR J PHARMACOL 390: 107-11 (2000)).

[4] = read-out: hNTS1 Geometric Mean ∀ SEM (equilibrium dissociation constant Kd)
[5] = Table 2, read-out: hNTS2 Geometric Mean ∀ SEM (equilibrium dissociation constant Kd)

T2 sequence (O95665 whole entry): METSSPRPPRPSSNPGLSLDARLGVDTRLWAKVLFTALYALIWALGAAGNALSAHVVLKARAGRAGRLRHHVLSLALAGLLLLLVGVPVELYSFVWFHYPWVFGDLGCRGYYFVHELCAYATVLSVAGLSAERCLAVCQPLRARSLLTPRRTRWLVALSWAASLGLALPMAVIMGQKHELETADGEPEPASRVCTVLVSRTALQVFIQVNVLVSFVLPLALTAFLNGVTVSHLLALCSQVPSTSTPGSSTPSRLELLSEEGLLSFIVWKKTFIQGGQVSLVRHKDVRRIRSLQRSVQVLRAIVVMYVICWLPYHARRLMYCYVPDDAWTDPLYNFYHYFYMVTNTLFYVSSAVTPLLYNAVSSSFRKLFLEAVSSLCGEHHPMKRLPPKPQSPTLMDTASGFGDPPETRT
T1 sequence (P30989 whole entry): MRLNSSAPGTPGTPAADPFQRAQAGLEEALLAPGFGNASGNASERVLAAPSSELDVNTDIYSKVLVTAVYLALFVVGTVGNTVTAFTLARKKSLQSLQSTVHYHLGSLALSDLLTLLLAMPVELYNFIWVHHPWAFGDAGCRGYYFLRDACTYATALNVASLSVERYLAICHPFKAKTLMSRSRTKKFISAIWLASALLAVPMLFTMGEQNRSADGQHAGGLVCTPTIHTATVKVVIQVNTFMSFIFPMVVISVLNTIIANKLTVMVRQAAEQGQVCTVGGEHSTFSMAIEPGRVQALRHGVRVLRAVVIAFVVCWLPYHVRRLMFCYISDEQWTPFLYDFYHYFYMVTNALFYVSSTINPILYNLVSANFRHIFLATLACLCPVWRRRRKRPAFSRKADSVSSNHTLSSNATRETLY

SMILES	hNTS1 Selectivity (hNTS1)	Kd (hNTS1; [4]) [nM]	hNTS2 Selectivity (hNTS2; Table 2, hNTS2 over hNTS1)	Kd (hNTS2; [5]) [nM]	hNTS2 Selectivity (hNTS2; Table 4)	other results
CC(C)C[C@H](NC(=O)[C@@H](NC(=O)[C@H](Cc1cccc2[nH]ccc12)NC(=O)[C@@H]1CCCN1C(=O)[C@H](CCCNC(=N)N)NC(=O)[C@@H](N)CCCNC(=N)N)C(C)(C)C)C(=O)O [NT65, [neo-Trp^11,tert-Leu^12]NT(8-13)] (H-RRP[Ala(indol-4-yl)][Tle]L-OH; N-terminus and C-terminus assumed)	0.5	1.01 ± 0.05	1.9	0.52 ± 0.03	1.7	degradation in plasma [1]: rapidly degraded
CC[C@H](C)[C@H](NC(=O)[C@H](Cc1cccc2[nH]ccc12)NC(=O)[C@@H]1CCCN1C(=O)[C@H](CCCNC(=N)N)NC(=O)[C@@H](N)CCCNC(=N)N)C(=O)N[C@@H](CC(C)C)C(=O)O [NT64L, [L-neo-Trp^11]NT(8-13)]						degradation in plasma [1]: rapidly degraded
CC(C)C[C@H](NC(=O)[C@@H](NC(=O)[C@H](Cc1cccc2[nH]ccc12)NC(=O)[C@@H]1CCCN1C(=O)[C@H](CCCNC(=N)N)NC(=O)[C@H](N)CCCCN)C(C)(C)C)C(=O)O [NT66L, [D-Lys^8,L-neo-Trp^11,tert-Leu^12]NT(8-13)] (H-[dK]RP[Ala(indol-4-yl)][Tle]L-OH; N-terminus and C-terminus assumed)	0.7	10.2 ± 0.6	1.4	7.1 ± 0.8	2	half-life [1]: > 4.17 days
CC[C@H](C)[C@H](NC(=O)[C@@H](Cc1cccc2ccccc12)NC(=O)[C@@H]1CCCN1C(=O)[C@H](CCCNC(=N)N)NC(=O)[C@H](CCCNC(=N)N)NC)C(=O)N[C@@H](CC(C)C)C(=O)O [NT80, [N-methyl-Arg^8,D-3,1-Nal^11]NT(8-13)]				30		Kd (hNTS2; text, read-out: Kd at hNTS2): ~30 nM; effect on body temperature [2]: minimal effects
CC[C@H](C)[C@H](NC(=O)[C@H](Cc1cccc2[nH]ccc12)NC(=O)[C@@H]1CCCN1C(=O)[C@H](N)CCCCN)C(=O)N[C@@H](CC(C)C)C(=O)O [NT73, [D-Lys^9,L-neo-Trp^11]NT(9-13)] (H-[dK]P[Ala(indol-4-yl)]IL-OH; N-terminus and C-terminus assumed)	5.5	30 ± 3	0.2	162 ± 3		half-life [1]: > 4.17 days
CC[C@H](C)[C@H](NC(=O)[C@@H](Cc1cccc2ccccc12)NC(=O)[C@@H]1CCCN1C(=O)[C@H](CCCNC(=N)N)NC(=O)[C@@H](N)CCCNC(=N)N)C(=O)N[C@@H](CC(C)C)C(=O)O [NT50, [D-3,1-Nal^11]NT(8-13)]						Kd (hNTS2; text, read-out: Kd at hNTS2): 17.3 nM; behavioral effect [3]: caused behavioral activation; effects on body temperature [3]: little or no effects on body temperature
CC(C)C[C@H](NC(=O)[C@@H](NC(=O)[C@H](Cc1cccc2[nH]ccc12)NC(=O)[C@@H]1CCCN1C(=O)[C@H](N)CCCCN)C(C)(C)C)C(=O)O [NT72, [D-Lys^9,L-neo-Trp^11,tert-Leu^12]NT(9-13)] (H-[dK]P[Ala(indol-4-yl)][Tle]L-OH; N-terminus and C-terminus assumed)	41.0		0.02		— (“—“ indicates higher affinity for hNTS1)	Kd (hNTS1; text, read-out: Kd at hNTS1): 34 nM; Kd (hNTS2; text, read-out: Kd at hNTS2): 1400 nM; half-life [1]: > 4.17 days
CC(C)C[C@H](NC(=O)[C@@H](NC(=O)[C@H](Cc1c[nH]c2ccccc12)NC(=O)[C@@H]1CCCN1C(=O)[C@H](CCCNC(=N)N)NC(=O)[C@H](N)CCCCN)C(C)(C)C)C(=O)O [NT66T, [D-Lys^8,L-Trp^11,tert-Leu^12]NT(8-13)] (H-[dK]RPW[Tle]L-OH; N-terminus and C-terminus assumed)	0.1	140 ± 19	7.7	18.1 ± 0.7		
CN[C@@H](CCCNC(=N)N)C(=O)N[C@@H](CCN)C(=O)N1CCC[C@H]1C(=O)N[C@@H](Cc1cccc2[nH]ccc12)C(=O)N[C@H](C(=O)N[C@@H](CC(C)C)C(=O)O)C(C)(C)C [NT71, [N-methyl-Arg^8,DAB^9,L-neo-Trp^11,tert-leu^12]NT(8-13)] (H-[NMeR][Dab]P[Ala(indol-4-yl)][Tle]L-OH; N-terminus and C-terminus assumed)	0.7	1.71 ± 0.06	1.5	1.11 ± 0.03		
CC[C@H](C)[C@H](NC(=O)[C@H](Cc1ccc(O)cc1)NC(=O)[C@@H]1CCCN1C(=O)[C@H](CCCNC(=N)N)NC(=O)[C@@H](N)CCCN)C(=O)N[C@@H](CC(C)C)C(=O)O [NT21, [L-Orn^8]NT(8-13)] (H-[Orn]RPYIL-OH; N-terminus and C-terminus assumed)	5.2	0.41 ± 0.03	0.2	2.2 ± 0.1		
CC(C)C[C@H](NC(=O)[C@@H](NC(=O)[C@H](Cc1cccc2[nH]ccc12)NC(=O)[C@@H]1CCCN1C(=O)[C@@H](CCCN)NC(=O)[C@@H](N)CCCNC(=N)N)C(C)(C)C)C(=O)O [NT77, [D-Orn^9,L-neo-Trp^11,tert-Leu^12]NT(8-13)] (H-R[dOrn]P[Ala(indol-4-yl)][Tle]L-OH; N-terminus and C-terminus assumed)	0.3	1500 ± 100	3.3	460 ± 70	3.3	
CC[C@H](C)[C@H](NC(=O)[C@H](Cc1cccc2[nH]ccc12)NC(=O)[C@@H]1CCCN1C(=O)[C@H](CCCNC(=N)N)NC(=O)[C@H](N)CCCCN)C(=O)N[C@@H](CC(C)C)C(=O)O [NT67L, [D-Lys^8,L-neo-Trp^11]NT(8-13)] (H-[dK]RP[Ala(indol-4-yl)]IL-OH; N-terminus and C-terminus assumed)	2.1	0.59 ± 0.05	0.5	1.23 ± 0.03	— (“—“ indicates higher affinity for hNTS1)	half-life [1]: > 4.17 days
CC[C@H](C)[C@H](NC(=O)[C@H](Cc1ccc(O)cc1)NC(=O)[C@@H]1CCCN1C(=O)[C@H](CCCCN)NC(=O)[C@H](N)CCCNC(=N)N)C(=O)N[C@@H](CC(C)C)C(=O)O [NT15, [D-Arg^8,L-Lys^9]NT(8-13)] (H-[dR]KPYIL-OH; N-terminus and C-terminus assumed)	4.0		0.2			Kd (hNTS1): 3.5 ± 0.5 nM; Kd (hNTS2): 18 ± 2 nM
CC[C@H](C)[C@H](NC(=O)[C@H](Cc1ccc(O)cc1)NC(=O)[C@@H]1CCCN1C(=O)[C@H](CCCN)NC(=O)[C@H](N)CCCN)C(=O)N[C@@H](CC(C)C)C(=O)O [NT27, [D-Orn^8,L-Orn^9]NT(8-13)]	6.6	3.6 ± 0.2	0.2	24 ± 2		
CC[C@H](C)[C@H](NC(=O)[C@H](Cc1ccc(O)cc1)NC(=O)[C@@H]1CCCN1C(=O)[C@@H](N)CCCN)C(=O)N[C@@H](CC(C)C)C(=O)O [NT34, [L-Orn^9]NT(9-13)] (H-[Orn]PYIL-OH; N-terminus and C-terminus assumed)	4.0	300 ± 50	0.3	1190 ± 40		
CC[C@H](C)[C@H](NC(=O)[C@H](Cc1ccc(O)cc1)NC(=O)[C@@H]1CCCN1C(=O)[C@@H](CCCN)NC(=O)[C@@H](N)CCCN)C(=O)N[C@@H](CC(C)C)C(=O)O [NT26, [L-Orn^8,D-Orn^9]NT(8-13)]	3.0	360 ± 40	0.3	1082 ± 6		
